This is an account of results in patent US20070066512A1, “Methods and compositions using immunomodulatory compounds for the treatment of disorders associated with low plasma leptin levels” (priority 2005, published 2007).

Series [1] deals with adipocytes differentiated from Human Mesenchymal Stem Cell (MSC). The series is described as follows: Triglyceride accumulation in MSC-derived adipocytes (microscopy, Oil Red O staining). The class given is cell-based. The note with it: for triglyceride accumulation quantified by Oil Red O staining (FIG. 2B): cells cultured with compound vs DMSO. On the procedure:
(§1) Human Mesenchymal Stem Cell (MSC) and adipocyte differentiation media were obtained from Cambrex (Walkersville, Md.). MSCs were seeded in 24 well plates at 40,000 cells per well in MSC Basic Medium (MSCBM), supplemented with 10% serum and expanded for 7 days. At 100% of confluence, three cycles of induction/maintenance stimulated adipogetic differentiation. Each cycle consisted feeding MSCs with Adipogenic Induction Medium (AIM) for 3 days, followed by 1 day of culture in Adipogenic Maintenance Medium (AMM). AIM and AMM contained 10% serum, Pen-Sterep and L-Glu, supplemented with insulin, dexamethasone, indomethacin and IBMX, or insulin only. After 3 complete cycles of induction/maintenance, MSCs are cultured for 3 more days in AMM and analyzed.
(§2) To study the effects of immunomodulatory compounds on adipocyte differentiation, MSCs were differentiated in the presence of DMSO or varying concentrations of an immunomodulatory compound. DMSO and immunomodulatory compounds were added to the medium during the differentiation and maintenance steps. Phenotypic characterization of the cells for adipocyte markers, such as triglyceride content and adipokine secretion, was performed.
Fat content in adipocyte was quantified by Oil Red O staining. Cells were washed with PBS and fixed with 3.7% formaldehyde for 15 minutes. Lipid vacuoles were stained with 0.5% Oil Red O in 60% isopropanol for 30 minutes at 37° C. Cells were then washed three times with water and Oil Red O content was dissolved into 100% propanol. The optical density of the solution was measured at 510 nm.

In series [2] the test system is leptin secretion in adipocytes. The series is described as follows: Leptin secretion of adipocytes (quantikine human leptin immunoassay). To be noted: for concentration giving maximum of dose dependent leptin secretion response: adipocytes differentiated in presence of compound; for dexamethasone induced leptin secretion (FIG. 3C): dexamethasone added to the cells for 15 hours at the end of differentiation. The class given is cell-based. On the procedure:
as §1, §2
Leptin and adiponectin were measured using the quantikine human leptin and human adiponectin immunoassay kits (R&D Systems, Minneapolis, Minn.). To measure leptin secretion, 100 μl of medium was collected from the cell plates, diluted 2 or 5 times depending on the collecting time during the differentiation process, and analyzed following the manufacturer's protocols. Results were corrected for the dilution factor. For adiponectin secretion, 50 μl of medium was collected and directly analyzed.

The test system of series [3] is adiponectin secretion in adipocytes. The series is described as follows: Adiponectin secretion of adipocytes (quantikine human adiponectin immunoassay). The class given is cell-based. To be noted: adipocytes differentiated in presence of compound. On the procedure: as §1
To study the effects of immunomodulatory compounds on adipocyte differentiation, MSCs were differentiated in the presence of DMSO or varying concentrations of an immunomodulatory compound. […]
Leptin and adiponectin were measured using the quantikine human leptin and human adiponectin immunoassay kits (R&D Systems, Minneapolis, Minn.). To measure leptin secretion, 100 μl of medium was collected from the cell plates, diluted 2 or 5 times depending on the collecting time during the differentiation process, and analyzed following the manufacturer's protocols. […] For adiponectin secretion, 50 μl of medium was collected and directly analyzed.

The subject of the next series is leptin mRNA. The series is described as follows: Northern blot of leptin mRNA in MSC-derived adipocytes. The class given is cell-based, Human. The note with it: adipocytes treated with compound vs DMSO; GAPDH control unchanged. On the procedure: as §1, §2
(§3) RNAs from MSC-derived adipocytes were isolated with RNeasy lipid tissue kit (Qiagen, Valencia, Calif.). […]

The next series has as its system adiponectin mRNA. As to the kind of experiment: Northern blot of adiponectin mRNA in MSC-derived adipocytes. The class given is cell-based, Human. The note with it: adipocytes treated with compound vs DMSO; GAPDH control unchanged. On the procedure:
as §1, §2, §3

The subject of series [4] is MSCs. The series is described as follows: MSC viability (XTT assay). To be noted: MSCs treated for 2 days vs DMSO. Type of series: cell-based, Human. On the procedure: (§4) MSC viability was assayed using cell proliferation kit II (XTT) (Roche, Indianapolis, Ind.). MSC proliferation was assayed using 5-bromo-2′-deoxy-uridine labeling and detection kit III (BrdU) (Roche, Indianapolis, Ind.). MSCs have been seeded in 96 well plates and expanded for 2 days in presence of DMSO or varying concentrations of an immunomodulatory compound. XTT and BrdU were added to the cells for 20 hours. The viability and proliferation of MSCs were assayed following manufacturer's instructions.

Series [5] has as its system MSCs. The series is described as follows: MSC proliferation (BrdU incorporation assay). The class given is cell-based, Human. To be noted: MSCs treated for 2 days vs DMSO. On the procedure: as §4
For series [6] the following is noted: cited from earlier work; for hygroscopicity of polymorphic form: crystalline form of 3-(4-amino-1-oxo-1,3 dihydro-isoindol-2-yl)-piperidene-2,6-dione; for interconversion of polymorphic form: aqueous solvent systems or higher relative humidities.

For the compound `Nc1cccc2c1C(=O)N(C1CCC(=O)NC1=O)C2=O` (centres unmarked) [1,3-dioxo-(2,6-dioxopiperidin-3-yl)-4-aminoisoindoline], the “triglyceride accumulation quantified by Oil Red O staining (FIG. 2B)” value in series [1] is listed as “no significant difference”. Moreover, the “leptin secretion vs cells differentiated in DMSO (FIG. 3B)” value in series [2] (adipocytes differentiated in presence of 0. 1, 1, 2.5, or 10 μM) was “a similar result was observed”. In addition, in series [2], the “concentration giving maximum of dose dependent leptin secretion response” value is 10 µM and the “dexamethasone induced leptin secretion (FIG. 3C)” value was “enhanced dexamethasone induced leptin secretion”. For the same compound, in series [3], the “adiponectin secretion vs cells differentiated in DMSO (FIG. 4)” value is listed as “lower levels of adiponectin secretion”. In addition, the “level of leptin mRNAs (northern blot, FIG. 5)” value with leptin mRNA is “dose-dependently increase”. Besides, the “level of adiponectin mRNAs (northern blot, FIG. 5)” value in the series on adiponectin mRNA is reported as “dose-dependent decrease”. For the same compound, the “cell viability (XTT, FIG. 6)” value in the series on MSCs [4] is given as “neither 1-oxo-(2,6-dioxopiperidin-3-yl)-4-aminoisoindoline nor 1,3-dioxo-(2,6-dioxopiperidin-3-yl)-4-aminoisoindoline caused significant change”. Further, in the series on MSCs [5], the “cell proliferation (BrdU incorporation, FIG. 6)” value is recorded as “neither 1-oxo-(2,6-dioxopiperidin-3-yl)-4-aminoisoindoline nor 1,3-dioxo-(2,6-dioxopiperidin-3-yl)-4-aminoisoindoline caused significant change”.
`Nc1cccc2c1CN(C1CCC(=O)NC1=O)C2=O` (centres unmarked) [1-oxo-(2,6-dioxopiperidin-3-yl)-4-aminoisoindoline]: the “triglyceride accumulation quantified by Oil Red O staining (FIG. 2B)” value in series [1] is given as “no significant difference”. Moreover, in series [1] (cells differentiated with compound vs DMSO, lipid vacuoles observed), the “ability of the cells to accumulate triglyceride (microscopy, FIG. 2A)” value is reported as “does not alter the ability of the cells to accumulate triglyceride”. For the same compound, in series [2] (adipocytes differentiated in presence of 2.5, 10, 25, or 50 μM), the “leptin secretion vs cells differentiated in DMSO (FIG. 3A)” value was “secreted higher levels of leptin”. Moreover, in series [2], the “concentration giving maximum of dose dependent leptin secretion response” value amounted to 25 µM and the “dexamethasone induced leptin secretion (FIG. 3C)” value is “enhanced dexamethasone induced leptin secretion”. Besides, in series [3], the “adiponectin secretion vs cells differentiated in DMSO (FIG. 4)” value is given as “lower levels of adiponectin secretion”. Moreover, the “level of leptin mRNAs (northern blot, FIG. 5)” value in the series on leptin mRNA is “dose-dependently increase”. The “level of adiponectin mRNAs (northern blot, FIG. 5)” value with adiponectin mRNA is recorded as “dose-dependent decrease”. Also, in the series on MSCs [4], the “cell viability (XTT, FIG. 6)” value was “neither 1-oxo-(2,6-dioxopiperidin-3-yl)-4-aminoisoindoline nor 1,3-dioxo-(2,6-dioxopiperidin-3-yl)-4-aminoisoindoline caused significant change”. Besides, the “cell proliferation (BrdU incorporation, FIG. 6)” value in the series with MSCs [5] is “neither 1-oxo-(2,6-dioxopiperidin-3-yl)-4-aminoisoindoline nor 1,3-dioxo-(2,6-dioxopiperidin-3-yl)-4-aminoisoindoline caused significant change”.
Take `Nc1cccc2c1CN(C1CCC(=O)NC1=O)C2=O` (centres unmarked) [Form A, 3-(4-amino-1-oxo-1,3 dihydro-isoindol-2-yl)-piperidene-2,6-dione]: the “relative stability of polymorphic form” value in series [6] (Form A: among anhydrous polymorphs, Form E: in aqueous solvent systems) was “most thermodynamically stable anhydrous polymorph”. In series [6], the “hygroscopicity of polymorphic form” value was “weakly or not hygroscopic”.
In the case of `Nc1cccc2c1CN(C1CCC(=O)NC1=O)C2=O` (centres unmarked) [Form B, 3-(4-amino-1-oxo-1,3 dihydro-isoindol-2-yl)-piperidene-2,6-dione], in series [6], the “interconversion of polymorphic form” value was “converts to Form E in aqueous solvent systems”.
Regarding `Nc1cccc2c1CN(C1CCC(=O)NC1=O)C2=O` (centres unmarked) [Form C, 3-(4-amino-1-oxo-1,3 dihydro-isoindol-2-yl)-piperidene-2,6-dione], in series [6], the “interconversion of polymorphic form” value is reported as “can convert to Form B at higher relative humidities” and the “hygroscopicity of polymorphic form” value was “not hygroscopic below about 85% RH”.
On to `Nc1cccc2c1CN(C1CCC(=O)NC1=O)C2=O` (centres unmarked) [Form D, 3-(4-amino-1-oxo-1,3 dihydro-isoindol-2-yl)-piperidene-2,6-dione], for which, in series [6], the “interconversion of polymorphic form” value is reported as “will typically convert to Form B when stressed at higher relative humidities” and the “hygroscopicity of polymorphic form” value is “either weakly or not hygroscopic”.
